Here are results for 23 compounds from ChEMBL document CHEMBL4118146, “Design, synthesis and evaluation of substituted piperidine based KCNQ openers as novel antiepileptic agents” (Bioorg Med Chem Lett, 2018).

Molecules are shown by their SMILES.

For data set [1], the target named is T1, Potassium voltage-gated channel subfamily KQT member 2 (Homo sapiens, UniProt O43526). In words: Activation of KCNQ2 (unknown origin) expressed in CHO cells at 10 uM incubated for 20 mins in dark measured every 2 secs for 10 secs by fluorescence-based thallium influx assay relative to control. The format is cell-based.
Data set [2] deals with T1, Potassium voltage-gated channel subfamily KQT member 2. In words: Activation of KCNQ2 (unknown origin) expressed in CHO cells at 10 uM incubated for 20 mins in dark measured every 2 secs for 10 secs by fluorescence-based thallium influx assay relative to retigabine. Format: cell-based.
For data set [3] the target is unchanged. In words: Activation of KCNQ2 (unknown origin) expressed in CHO cells at 10 uM after 10 mins by atomic absorption spectrophotometry-based Rb+ flow assay. Format: cell-based.
The target is the same in data set [4]. The data set can be described thus: Activation of KCNQ2 (unknown origin) expressed in CHO cells assessed as conductivity (I/I0) at 10 uM by electrophysiological patch-clamp test. Format: cell-based. Background: Patch clamp records ionic current or voltage across a cell membrane.
The target is the same in data set [5]. The data set can be described thus: Activation of KCNQ2 (unknown origin) expressed in CHO cells assessed as half-maximum activation voltage left shift at 10 uM by electrophysiological patch-clamp test. The format is cell-based.
A short description of data set [6]: Half life in Sprague-Dawley rat at 1 mg/kg, iv measured over 24 hrs by LC/MS/MS method. The format is ADME, organism-based. Particulars: in vivo.
Data set [7] can be described thus: Tmax in Sprague-Dawley rat at 1 mg/kg, iv measured over 24 hrs by LC/MS/MS method. The format is ADME, organism-based. Particulars: in vivo.
Data set [8] in a line: Cmax in Sprague-Dawley rat at 1 mg/kg, iv measured over 24 hrs by LC/MS/MS method. The settings on record: in vivo. Further details: dose 1 mg/kg, route intravenous. Format: ADME, organism-based.
A short description of data set [9]: AUClast in Sprague-Dawley rat at 1 mg/kg, iv measured over 24 hrs by LC/MS/MS method. The format is ADME, organism-based. Set-up: dose 1 mg/kg, time 0 - last, route intravenous. Particulars: in vivo.
Data set [10] can be described thus: Apparent volume of distribution in Sprague-Dawley rat at 1 mg/kg, iv measured over 24 hrs by LC/MS/MS method. Format: ADME, organism-based. Particulars: in vivo, read-out: Vd(app).
Data set [11] can be described thus: Clearance in Sprague-Dawley rat at 1 mg/kg, iv measured over 24 hrs by LC/MS/MS method. The settings on record: in vivo. The format is ADME, organism-based.
Data set [12] is described as follows: MRTlast in Sprague-Dawley rat at 1 mg/kg, iv measured over 24 hrs by LC/MS/MS method. The format is ADME, organism-based. The settings on record: in vivo.

T1 sequence (O43526 whole entry): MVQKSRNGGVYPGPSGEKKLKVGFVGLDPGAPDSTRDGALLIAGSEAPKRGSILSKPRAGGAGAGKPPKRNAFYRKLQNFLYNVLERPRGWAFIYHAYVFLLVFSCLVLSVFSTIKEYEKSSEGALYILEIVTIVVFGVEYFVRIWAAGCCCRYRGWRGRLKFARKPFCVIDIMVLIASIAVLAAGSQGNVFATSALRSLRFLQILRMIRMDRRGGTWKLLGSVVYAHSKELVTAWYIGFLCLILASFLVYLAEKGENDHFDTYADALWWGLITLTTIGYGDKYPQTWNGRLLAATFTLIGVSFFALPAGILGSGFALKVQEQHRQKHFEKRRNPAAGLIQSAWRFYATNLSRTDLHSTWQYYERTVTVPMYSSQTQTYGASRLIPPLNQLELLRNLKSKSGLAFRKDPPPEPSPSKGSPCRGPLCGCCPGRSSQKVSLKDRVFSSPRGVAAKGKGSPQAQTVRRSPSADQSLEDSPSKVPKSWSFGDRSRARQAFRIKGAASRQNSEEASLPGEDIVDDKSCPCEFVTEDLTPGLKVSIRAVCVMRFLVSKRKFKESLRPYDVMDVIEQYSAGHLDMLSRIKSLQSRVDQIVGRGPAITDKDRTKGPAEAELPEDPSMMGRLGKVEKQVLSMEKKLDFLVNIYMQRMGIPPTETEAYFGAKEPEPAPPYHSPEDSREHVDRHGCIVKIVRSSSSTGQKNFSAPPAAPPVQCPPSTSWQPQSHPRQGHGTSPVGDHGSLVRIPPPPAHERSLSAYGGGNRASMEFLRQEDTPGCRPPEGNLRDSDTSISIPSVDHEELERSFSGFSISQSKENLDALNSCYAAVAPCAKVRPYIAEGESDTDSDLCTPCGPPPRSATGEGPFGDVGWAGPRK

With `Cc1cc(CN2CCCCC2)cc(C)c1NC(=O)CC(C)(C)C`, the Activity in data set [1] was determined as 10.3%.

`Cc1cc(CN2CCc3ccccc3C2)cc(C)c1NC(=O)CC(C)(C)C`: in [1], the Activity stood at 5.11%.

As usually defined, the EC50 is the concentration at which the effect is half-maximal. As for `Cc1cc(CN2CCCc3ccccc32)cc(C)c1NC(=O)CC(C)(C)C`, the Activity in [1] came to 139%. The compound also displayed a fold change (FC) in [2] of 3.5. In [3], this compound showed an EC50 of 0.33 µM and an Efficacy of 160%. In addition, the Ratio in data set [4] is 2.76. Besides, the Activity in data set [5] is 13.3 mV.

`Cc1cc(N2CCC(c3ccc(C(F)(F)F)cc3)CC2)cc(C)c1NC(=O)CC(C)(C)C`: in data set [1], the Activity stood at 41.2%.

Take `CCOC(=O)Nc1ccc(NCc2ccc(F)cc2)cc1N` [EZOGABINE]: the Activity in [1] stood at 40.2%. In addition, in [3], the midpoint of the response, the EC50, lay at 0.35 µM and the Efficacy is 210%. Besides, the Ratio in [4] stood at 2.12. In addition, the Activity in data set [5] came out at 40 mV.

As for `Cc1cc(N2CCC(c3ccccc3F)CC2)cc(C)c1NC(=O)CC(C)(C)C`, in data set [1], the Activity came out at 44%.

Take `Cc1cc(N2CCC(N3CCOCC3)CC2)cc(C)c1NC(=O)CC(C)(C)C`: in data set [1], the Activity worked out at 1.13%.

In the case of `Cc1cc(N2CCC(c3ccc(Cl)cc3)CC2)cc(C)c1NC(=O)CC(C)(C)C`, the Activity in [1] was 88.3%.

Turning to `Cc1cc(N2CCC(=O)CC2)cc(C)c1NC(=O)CC(C)(C)C`, the Activity in data set [1] came to 110%. In addition, in data set [3], a half-maximal effect (EC50) was put at 0.13 µM and the Efficacy came out at 148%.

On to `Cc1cc(N2CCC(C)(C)CC2)cc(C)c1NC(=O)CC(C)(C)C`, for which the Activity in [1] was 100%; in data set [5] it was 25 mV. Moreover, a half-maximal response in [3] (EC50) required 1.58 µM. The compound also displayed an Efficacy in [3] of 210%. Also, the Ratio in [4] stood at 1.53.

As to `Cc1cc(C2CCCCN2)cc(C)c1NC(=O)CC(C)(C)C` (stereo not given), the Activity in data set [1] was found to be 0.83%.

On to `Cc1cc(N2CCC(c3cccc(Cl)c3)CC2)cc(C)c1NC(=O)CC(C)(C)C`, for which, in data set [1], the Activity came out at 168%. The compound further showed a fold change (FC) in data set [2] of 3.7 to 42.

Regarding `Cc1cc(N2CCC(N3CCCCC3)CC2)cc(C)c1NC(=O)CC(C)(C)C`, the Activity in [1] came to 0.02%.

For the compound `Cc1cc(N2CCN(c3cccc(C(F)(F)F)c3)CC2)cc(C)c1NC(=O)CC(C)(C)C`, in data set [1], the Activity was determined as 52.1%.

Consider `Cc1cc(N2CCC(c3ccncc3)CC2)cc(C)c1NC(=O)CC(C)(C)C`, for which the Activity in data set [1] is 29.7%.

Take `Cc1cc(N2CCCCC2)cc(C)c1NC(=O)CC(C)(C)C`: in data set [1], the Activity was found to be 69.8%.

Take `Cc1cc(N2CCC(c3cccc(C(F)(F)F)c3)CC2)cc(C)c1NC(=O)CC(C)(C)C`: in [1], the Activity came to 149%. For the same compound, the fold change (FC) in data set [2] lay within 3.7 to 42.

`Cc1cc(N2CCC(c3ccccc3)CC2)cc(C)c1NC(=O)CC(C)(C)C`: in data set [1], the Activity stood at 0.63%.

Take `Cc1cc(N2CCC(c3cccnc3)CC2)cc(C)c1NC(=O)CC(C)(C)C`: the Activity in data set [1] was determined as 42.6%.

As for `Cc1cc(N2CCN(c3ccccn3)CC2)cc(C)c1NC(=O)CC(C)(C)C`, the Activity in data set [1] was 0.28%.

As a reminder, the half-life is how long it takes for the measured level to halve. High values mean slow decline, low ones rapid decline. One may read the Tmax as the time from dosing to the highest level. As a reminder, the Cmax is the maximum level reached in the sampled fluid or tissue. Broadly, the AUC(0-t) is exposure summed from dosing to a finite time, without extrapolation to infinity. Higher therefore signals more exposure. As a reminder, the clearance is the rate of elimination divided by the concentration. A high value points to a high capacity for elimination. Broadly, the MRT last is the average time that molecules of a dose stay in the body. In the case of `Cc1cc(N2CCC(c3cccc(F)c3)CC2)cc(C)c1NC(=O)CC(C)(C)C`, in data set [1], the Activity turned out to be 152%. This compound gave a fold change (FC) in data set [2] of 3.7 to 42. In data set [3], this compound yielded an EC50 of 0.22 µM and an Efficacy of 180%. The compound also gave a half-life in data set [6] of 1.38 h. Also, the time of peak concentration (Tmax) in data set [7] was found to be 1.8 min. The highest concentration (Cmax) in [8] amounted to 9.11 µg/mL. For the same compound, the exposure AUC(0-t) at 24 h in [9] came out at 8.36 µg·h/mL. Also, the Vd in data set [10] turned out to be 0.24 L/kg. In data set [11], this compound showed a clearance of 0.12 L/h/kg. In [12], this compound showed an MRT last at 24 h of 2.61 h.

With `Cc1cc(N2CCN(c3ccc(C(F)(F)F)cc3)CC2)cc(C)c1NC(=O)CC(C)(C)C`, the Activity in data set [1] was 88.3%.

As to `Cc1cc(N2CCC(c3ccccc3C(F)(F)F)CC2)cc(C)c1NC(=O)CC(C)(C)C`, the Activity in data set [1] is -47.2%.
